Experimental data as given in US20110224256A1, “T[…] THE TREATMENT OF PSYCHIATRIC DISORDERS” (priority 2008, published 2011).
Entries after “also recorded” stand apart in the source; their conditions may differ. Counter-ions that a name gives are not always drawn.

Tested on: Sprague-Dawley male rats
Assay: Place conditioning to 10 mg/kg cocaine at P60 after juvenile drug exposure
Type: in vivo
Details: juvenile exposure P20-P35: MPH 2 mg/kg, ±7-OHDPAT 0.3 mg/kg, or MPH 2 mg/kg + Naf 0.05 mg/kg; tested at P60; HCl
Protocol: Juvenile Sprague-Dawley male rats were treated with MPH (2 mg/kg, i.p. twice daily), ±7-OHDPAT (0.3 mg/kg, i.p. twice daily), Naf (0.05, 0.5 and 5 mg/kg; i.p. twice daily) or VEH (i.p. twice daily) between the ages of P20 and P35 (Andersen et al., Nat. Neurosci., 5:13-14 (2002)). The MPH dose was selected on the basis of previous studies (see Andersen et al., Nat. Neurosci., 5:13-14 (2002); Bolanos et al., Biol. Psychiatry, 54:1317-1329 (2003); and Mague et al., Biol. Psychiatry, 57:120-125 (2005)), unpublished observations that we find similar behavioral effects if MPH is given i.p. or orally at this dose, and evidence that it approximates a clinically relevant dose in humans based on plasma levels (see Wargin et al., J. Pharmacol. Exp. Ther., 226:382-386 (1983); and Kuczenski, R. & Segal, D. S. J. Neurosci., 22:7264-7271 (2002)). Clinically therapeutic doses of MPH yield plasma levels between 8 and 40 ng/mL (Swanson et al., Behay. Brain Res., 130:73-78 (2002); Teicher et al., Ann. N. Y. Acad. Sci., 1071:313-323 (2006)), with 0.5 mg/kg i.p., achieving plasma levels of 36 ng/mL within 5 min in rats (Berridge et al., Biol. Psychiatry, 60:1111-1120 (2006)). Doses for juvenile exposure to ±7-OHDPAT are based on Neisewander et al., Neuropsychopharmacology, 29:1479-1487 (2004), and cortical microinjections of 10 µg/side were derived from Boulay et al. Prog. Neuropsychopharmacol. Biol. Psychiatry, 24:39-49 (2000). Naf doses below 1 mg/kg have negligible D2 receptor occupancy (Sautel et al., J. Pharmacol. Exp. Ther., 275:1239-1246 (1995)) and are behaviorally effective (Richtand et al., Brain Res., 867:239-242 (2000)). Subjects were weighed daily at 09.00 h and injected with their assigned drug; the second injection was administered 4 h later at 13.00 h. This regimen is designed to match the twice-daily dosing used by children, taking into account the higher metabolic rates of rats (Wargin et al., J. Pharmacol. Exp. Ther., 226:382-386 (1983)). After the second drug administration on P35, the rats received no further treatments until behavioral testing at P60.
Rats treated between P20 and P35 with either Naf (0, 0.05, 0.5 or 5.0 mg/kg; n=7-9), ±7-OHDPAT (0.3 mg/kg; n=9), MPH (2 mg/kg; n=9), or a combination of 2 mg/kg MPH and 0.05 mg/kg Naf (MPH/Naf; n=8) were tested at P60 for place conditioning to 10 mg/kg cocaine. According to standard laboratory methods (Andersen et al., Nat. Neurosci., 5:13-14 (2002); Carlezon, Methods Mol. Med., 84:243-249 (2003)), unbiased place conditioning chambers consisted of two large (24×18×33) side compartments separated by a small (12×18×33 cm) middle compartment. Screening was conducted for 30 min on Day 1. Rats were placed in the middle compartment and allowed to freely explore the apparatus. […] Two days of conditioning (with two sessions per day) occurred on Days 2 and 3 for 60 min (Andersen et al., Nat. Neurosci., 5:13-14 (2002); Carlezon, Methods Mol. Med., 84:243-249 (2003)). During the conditioning sessions, rats received a 1 mL/kg i.p. injection of VEH in the morning (09.00 h) and confined to one side. The rats were then returned to the home cage. Four hours later, rats received 10 mg/kg cocaine and confined to the other side. Sides differed in floor texture, wall colors and lighting, and assignments were counterbalanced. On Day 4, rats were permitted to freely explore the entire apparatus for 30 min in a drug-free state.

## COC(=O)C(c1ccccc1)C1CCCCN1 (stereo not drawn) [MPH, d,l-Methylphenidate HCl]
  place conditioning to 10 mg/kg cocaine associated environment (pre- vs. post-conditioning): Place aversion; also recorded: aversion to the cocaine-associated environment
